From PubChem BioAssay AID248 (DTP/NCI, 2004)
“And” between values parts separate entries of the source, which are not always exact repeats. Equal values may be shown once. Inconclusive results and toxic doses are left out.

System: L1210 leukemia ip in BDF1 mice, survival T/C
Experiment: NCI In Vivo Anticancer Drug Screen. Data for tumor model L1210 Leukemia (intraperitoneal) in B6D2F1 (BDF1) mice
Conditions: higher = longer survival
Outline: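 Value reflects the ratio of survival in compound-treated mice to survival in vehicle-treated controls, with both groups carrying the same transplanted tumor.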

With Nc1nc(=O)n(C2OC(CO)C(O)C2O)cc1F (stereo not drawn) the T/C (endpoint: mean survival time, dose: 0.02 mg/kg/injection, schedule: Q#A X020 (ip), vehicle: saline) was 104 % of control, the T/C (endpoint: mean survival time, dose: 0.04 mg/kg/injection, schedule: Q#A X020 (ip), vehicle: saline) was 109 % of control and the T/C (endpoint: mean survival time, dose: 0.05 mg/kg/injection, schedule: Q01DX010 (ip), vehicle: saline) was 98 % of control. For the same molecule, the T/C (endpoint: mean survival time, dose: 0.09 mg/kg/injection, schedule: Q01DX010 (ip), vehicle: saline) was 102 % of control, the T/C (endpoint: mean survival time, dose: 0.09 mg/kg/injection, schedule: Q#A X020 (ip), vehicle: saline) was 118 % of control and the T/C (endpoint: mean survival time, dose: 0.16 mg/kg/injection, schedule: Q03DX003 (ip), vehicle: saline) was 108 % of control. The T/C (endpoint: mean survival time, dose: 0.19 mg/kg/injection, schedule: Q01DX010 (ip), vehicle: saline) was 118 % of control, the T/C (endpoint: mean survival time, dose: 0.31 mg/kg/injection, schedule: Q03DX003 (ip), vehicle: saline) was 108 % of control and the T/C (endpoint: mean survival time, dose: 0.37 mg/kg/injection, schedule: Q#A X020 (ip), vehicle: saline) was 169 % of control. For the same molecule, the T/C (endpoint: mean survival time, dose: 0.38 mg/kg/injection, schedule: Q01DX010 (im), vehicle: saline) was 114 % of control, the T/C (endpoint: mean survival time, dose: 0.38 mg/kg/injection, schedule: Q01DX010 (ip), vehicle: saline) was 110 % of control and the T/C (endpoint: mean survival time, dose: 0.38 mg/kg/injection, schedule: Q01DX010 (sc), vehicle: saline) was 112 % of control. For the same molecule, the T/C (endpoint: mean survival time, dose: 0.63 mg/kg/injection, schedule: Q03DX003 (ip), vehicle: saline) was 122 % of control, the T/C (endpoint: mean survival time, dose: 0.75 mg/kg/injection, schedule: Q01DX010 (im), vehicle: saline) was 120 % of control and the T/C (endpoint: mean survival time, dose: 0.75 mg/kg/injection, schedule: Q#A X020 (ip), vehicle: saline) was 211 % of control. For the same molecule, the T/C (endpoint: mean survival time, dose: 1.25 mg/kg/injection, schedule: Q03DX003 (ip), vehicle: saline) was 122 % of control, the T/C (endpoint: mean survival time, dose: 1.5 mg/kg/injection, schedule: Q01DX010 (ip), vehicle: saline) was 177 % of control and the T/C (endpoint: mean survival time, dose: 1.5 mg/kg/injection, schedule: Q#A X020 (ip), vehicle: saline) was 217 % of control. The T/C (endpoint: mean survival time, dose: 1.56 mg/kg/injection, schedule: Q01DX010 (oral), vehicle: saline) was 106 % of control, the T/C (endpoint: mean survival time, dose: 2.5 mg/kg/injection, schedule: Q01DX001 (ip), vehicle: saline) was 120 % of control and the T/C (endpoint: mean survival time, dose: 2.5 mg/kg/injection, schedule: Q03DX004 (ip), vehicle: saline) was 157 % of control. The T/C (endpoint: mean survival time, dose: 2.5 mg/kg/injection, schedule: Q07DX002 (ip), vehicle: saline) was 111 % of control, the T/C (endpoint: mean survival time, dose: 3.0 mg/kg/injection, schedule: Q01DX006 (iv), vehicle: saline) was 124 % of control and the T/C (endpoint: mean survival time, dose: 3.0 mg/kg/injection, schedule: Q01DX010 (im), vehicle: saline) was 159 % of control and 166 % of control. For the same molecule, the T/C (endpoint: mean survival time, dose: 3.0 mg/kg/injection, schedule: Q01DX010 (ip), vehicle: saline) was 166 % of control, the T/C (endpoint: mean survival time, dose: 3.0 mg/kg/injection, schedule: Q01DX010 (sc), vehicle: saline) was 152 % of control and 162 % of control and the T/C (endpoint: mean survival time, dose: 3.12 mg/kg/injection, schedule: Q01DX015 (ip), vehicle: saline) was 195 % of control. The T/C (endpoint: mean survival time, dose: 3.13 mg/kg/injection, schedule: Q01DX010 (oral), vehicle: saline) was 112 % of control, the T/C (endpoint: mean survival time, dose: 4.0 mg/kg/injection, schedule: Q01DX009 (ip), vehicle: saline) was 173 % of control and the T/C (endpoint: mean survival time, dose: 5.0 mg/kg/injection, schedule: Q01DX001 (ip), vehicle: saline) was 122 % of control. For the same molecule, the T/C (endpoint: mean survival time, dose: 5.0 mg/kg/injection, schedule: Q03DX004 (ip), vehicle: saline) was 157 % of control, the T/C (endpoint: mean survival time, dose: 6.0 mg/kg/injection, schedule: Q01DX010 (im), vehicle: saline) was 176 % of control and the T/C (endpoint: mean survival time, dose: 6.0 mg/kg/injection, schedule: Q01DX010 (ip), vehicle: saline) was 183 % of control. The T/C (endpoint: mean survival time, dose: 6.0 mg/kg/injection, schedule: Q01DX010 (sc), vehicle: saline) was 178 % of control, the T/C (endpoint: mean survival time, dose: 6.25 mg/kg/injection, schedule: Q01DX010 (oral), vehicle: saline) was 118 % of control and the T/C (endpoint: mean survival time, dose: 8.0 mg/kg/injection, schedule: Q01DX009 (ip), vehicle: saline) was 216 % of control. The T/C (endpoint: mean survival time, dose: 10.0 mg/kg/injection, schedule: Q01DX001 (ip), vehicle: saline) was 124 % of control, the T/C (endpoint: mean survival time, dose: 10.0 mg/kg/injection, schedule: Q03DX004 (ip), vehicle: saline) was 160 % of control and the T/C (endpoint: mean survival time, dose: 10.0 mg/kg/injection, schedule: Q03DX Z (ip), vehicle: saline) was 166 % of control. The T/C (endpoint: mean survival time, dose: 12.0 mg/kg/injection, schedule: Q01DX006 (iv), vehicle: saline) was 157 % of control, the T/C (endpoint: mean survival time, dose: 12.0 mg/kg/injection, schedule: Q01DX010 (im), vehicle: saline) was 217 % of control and the T/C (endpoint: mean survival time, dose: 12.0 mg/kg/injection, schedule: Q01DX010 (ip), vehicle: saline) was 197 % of control. For the same molecule, the T/C (endpoint: mean survival time, dose: 12.0 mg/kg/injection, schedule: Q01DX010 (sc), vehicle: saline) was 203 % of control, the T/C (endpoint: mean survival time, dose: 12.0 mg/kg/injection, schedule: Q#A X020 (ip), vehicle: saline) was 201 % of control and the T/C (endpoint: mean survival time, dose: 12.5 mg/kg/injection, schedule: Q01DX010 (oral), vehicle: saline) was 153 % of control. For the same molecule, the T/C (endpoint: mean survival time, dose: 20.0 mg/kg/injection, schedule: Q01DX001 (ip), vehicle: saline) was 118 % of control, the T/C (endpoint: mean survival time, dose: 20.0 mg/kg/injection, schedule: Q03DX Z (ip), vehicle: saline) was 174 % of control and the T/C (endpoint: mean survival time, dose: 24.0 mg/kg/injection, schedule: Q01DX006 (iv), vehicle: saline) was 160 % of control and 191 % of control. The T/C (endpoint: mean survival time, dose: 24.0 mg/kg/injection, schedule: Q01DX010 (ip), vehicle: saline) was 191 % of control, the T/C (endpoint: mean survival time, dose: 24.0 mg/kg/injection, schedule: Q#A X020 (ip), vehicle: saline) was 120 % of control and the T/C (endpoint: mean survival time, dose: 25.0 mg/kg/injection, schedule: Q01DX005 (ip), vehicle: saline) was 150 % of control and 160 % of control. The T/C (endpoint: mean survival time, dose: 25.0 mg/kg/injection, schedule: Q01DX010 (oral), vehicle: saline) was 174 % of control, the T/C (endpoint: mean survival time, dose: 40.0 mg/kg/injection, schedule: Q01DX001 (ip), vehicle: saline) was 122 % of control and the T/C (endpoint: mean survival time, dose: 40.0 mg/kg/injection, schedule: Q01DX005 (ip), vehicle: saline) was 174 % of control. The T/C (endpoint: mean survival time, dose: 40.0 mg/kg/injection, schedule: Q03DX Z (ip), vehicle: saline) was 198 % of control, the T/C (endpoint: mean survival time, dose: 48.0 mg/kg/injection, schedule: Q01DX006 (iv), vehicle: saline) was 180 % of control and the T/C (endpoint: mean survival time, dose: 48.0 mg/kg/injection, schedule: Q01DX010 (ip), vehicle: saline) was 116 % of control. The T/C (endpoint: mean survival time, dose: 48.0 mg/kg/injection, schedule: Q#A X020 (ip), vehicle: saline) was 101 % of control, the T/C (endpoint: mean survival time, dose: 50.0 mg/kg/injection, schedule: Q01DX001 (ip), vehicle: saline) was 124 % of control and the T/C (endpoint: mean survival time, dose: 50.0 mg/kg/injection, schedule: Q01DX010 (oral), vehicle: saline) was 186 % of control. The T/C (endpoint: mean survival time, dose: 64.0 mg/kg/injection, schedule: Q01DX009 (oral), vehicle: saline) was 168 % of control, the T/C (endpoint: mean survival time, dose: 80.0 mg/kg/injection, schedule: Q01DX005 (ip), vehicle: saline) was 168 % of control and the T/C (endpoint: mean survival time, dose: 80.0 mg/kg/injection, schedule: Q03DX004 (ip), vehicle: saline) was 180 % of control. The T/C (endpoint: mean survival time, dose: 80.0 mg/kg/injection, schedule: Q03DX Z (ip), vehicle: saline) was 201 % of control, the T/C (endpoint: mean survival time, dose: 96.0 mg/kg/injection, schedule: Q01DX006 (iv), vehicle: saline) was 177 % of control and the T/C (endpoint: mean survival time, dose: 96.0 mg/kg/injection, schedule: Q01DX010 (ip), vehicle: saline) was 112 % of control. The T/C (endpoint: mean survival time, dose: 96.0 mg/kg/injection, schedule: Q#A X020 (ip), vehicle: saline) was 103 % of control, the T/C (endpoint: mean survival time, dose: 100.0 mg/kg/injection, schedule: Q01DX001 (ip), vehicle: saline) was 118 % of control and the T/C (endpoint: mean survival time, dose: 100.0 mg/kg/injection, schedule: Q01DX009 (ip), vehicle: saline) was 183 % of control. The T/C (endpoint: mean survival time, dose: 100.0 mg/kg/injection, schedule: Q01DX010 (oral), vehicle: saline) was 157 % of control, the T/C (endpoint: mean survival time, dose: 128.0 mg/kg/injection, schedule: Q01DX001 (oral), vehicle: saline) was 110 % of control and the T/C (endpoint: mean survival time, dose: 128.0 mg/kg/injection, schedule: Q01DX009 (oral), vehicle: saline) was 181 % of control. For the same molecule, the T/C (endpoint: mean survival time, dose: 160.0 mg/kg/injection, schedule: Q01DX005 (ip), vehicle: saline) was 168 % of control, the T/C (endpoint: mean survival time, dose: 160.0 mg/kg/injection, schedule: Q03DX004 (ip), vehicle: saline) was 198 % of control and the T/C (endpoint: mean survival time, dose: 160.0 mg/kg/injection, schedule: Q07DX002 (ip), vehicle: saline) was 154 % of control. For the same molecule, the T/C (endpoint: mean survival time, dose: 160.0 mg/kg/injection, schedule: Q07DX Z (ip), vehicle: saline) was 152 % of control, the T/C (endpoint: mean survival time, dose: 192.0 mg/kg/injection, schedule: Q01DX006 (iv), vehicle: saline) was 95 % of control and the T/C (endpoint: mean survival time, dose: 192.0 mg/kg/injection, schedule: Q01DX010 (im), vehicle: saline) was 110 % of control. The T/C (endpoint: mean survival time, dose: 192.0 mg/kg/injection, schedule: Q01DX010 (ip), vehicle: saline) was 108 % of control, the T/C (endpoint: mean survival time, dose: 192.0 mg/kg/injection, schedule: Q01DX010 (sc), vehicle: saline) was 119 % of control and the T/C (endpoint: mean survival time, dose: 200.0 mg/kg/injection, schedule: Q01DX001 (ip), vehicle: saline) was 119 % of control. The T/C (endpoint: mean survival time, dose: 200.0 mg/kg/injection, schedule: Q01DX009 (ip), vehicle: saline) was 93 % of control, the T/C (endpoint: mean survival time, dose: 256.0 mg/kg/injection, schedule: Q01DX001 (oral), vehicle: saline) was 117 % of control and the T/C (endpoint: mean survival time, dose: 320.0 mg/kg/injection, schedule: Q07DX002 (ip), vehicle: saline) was 182 % of control. The T/C (endpoint: median survival time, dose: 2.0 mg/kg/injection, schedule: Q01DX009 (ip), vehicle: saline with Tween-80) was 168 % of control, the T/C (endpoint: median survival time, dose: 4.0 mg/kg/injection, schedule: Q01DX009 (ip), vehicle: saline with Tween-80) was 175 % of control and the T/C (endpoint: median survival time, dose: 4.0 mg/kg/injection, schedule: Q01DX009 (ip), vehicle: saline) was 160 % of control and 175 % of control. The T/C (endpoint: median survival time, dose: 8.0 mg/kg/injection, schedule: Q01DX009 (ip), vehicle: saline with Tween-80) was 183 % of control, the T/C (endpoint: median survival time, dose: 8.0 mg/kg/injection, schedule: Q01DX009 (ip), vehicle: saline) was 170 % of control and 187 % of control and the T/C (endpoint: median survival time, dose: 16.0 mg/kg/injection, schedule: Q01DX009 (ip), vehicle: saline with Tween-80) was 186 % of control. The T/C (endpoint: median survival time, dose: 16.0 mg/kg/injection, schedule: Q01DX009 (ip), vehicle: saline) was 190 % of control, the T/C (endpoint: median survival time, dose: 32.0 mg/kg/injection, schedule: Q01DX009 (ip), vehicle: saline with Tween-80) was 202 % of control and the T/C (endpoint: median survival time, dose: 32.0 mg/kg/injection, schedule: Q01DX009 (ip), vehicle: saline) was 160 % of control.
